Test results as given in patent US11596668B2, “Tissue repair” (THE UNIVERSITY OF SUSSEX, priority 2017, dated 2023).

Columns and labels:
[1] = tested on: rat aortic smooth muscle cells; assay: Proliferation assay, smooth muscle cells; assay type: cell-based; conditions: 0-200 μM, 24 h
Protocol: (§1) Proliferation assay: Proliferation of rat aortic endothelial cells (RAECs) and rat aortic smooth muscle cells (isolated from rats at animal unit at Sussex University) was evaluated using Trypan Blue exclusion test. Cells were seeded in 96 well plates at a seeding density of 1×10^4 cells/mL (0.15 mL/well). After 24 h, cells where treated with or without different concentrations of 2 HIF-1 inducers; DMOG and BIQ (0-200 μM). After another 24 hours, Trypan Blue was added and the cells that were stained (dead) and unstained (live) were counted. Results were expressed as number of cells/mL.

[2] = tested on: rat aortic endothelial cells (RAECs); assay: Proliferation assay, endothelial cells; assay type: cell-based; conditions: 24 h; for proliferation of rat aortic endothelial cells: 100 μM (0.1 mM); for optimum concentration for enhancing proliferation of rat aortic endothelial cells: tested 0-200 μM
Protocol: as §1

HIF-1 [3] = assay: HIF-1 in plasma by ELISA post balloon injury; assay type: in vivo, Sprague Dawley rats; conditions: DMOG 5 mg/Kg local hydrogel, 24 h post injury
Text: (§2) Angioplasty model: Balloon catheter injury (angioplasty) was the model used as an in vivo injury model using Sprague Dawley rats (450 g). Animals were anesthetized using 2% isoflurane where the rats were placed in a supine position. The right carotid artery was exposed and a (2F Fogarty catheter) was used to cause injury. The catheter was inserted into the common carotid artery via the external carotid to cause complete removal of the vascular endothelium from the common carotid artery down to its junction with the aortic arch. DMOG (5 mg/Kg) and EPO (100 ug/Kg) were administered either alone or in combination in the form of a hydrogel (30% w/v pluronic F127 gel) and applied to the artery after injury. Endothelial regrowth was then assessed using Evan's blue staining (injected IV in the tail vein 30 min before culling the animal) 0 and 5 days after injury to assess the area of de-endothelialised surface; re-endothelialised regions remain unstained. Images of stained arteries were quantified using Image J software.
ELISA: Blood was collected from venous tail at 0, 1 and 5 days post injury. Plasma was separated and used for quantitative measurement of HIF-1 using ELISA method as described earlier.

[4] = tested on: vascular endothelial growth factor (VEGF); assay: VEGF gene expression by real time qPCR in RAECs; assay type: cell-based, rat; conditions: 100 μM, 18 h, 21% O2; reaches level similar to cells at 1% oxygen
Protocol: (§3) Cell culture: Rat aortic endothelial cells (RAECs) were seeded into 24-well plates and cultured until ˜80% confluent after which they were incubated with or without DMOG for 18 h at normal oxygen levels (21% O2). Cells incubated at 1% O2 where used as a positive control for HIF-1.
Real time qPCR: The gene expression of vascular endothelial growth factor (VEGF), a HIF-1 target gene, was analysed by quantitative polymerase chain reaction (qPCR). Cells were lysed using TRIzol (Invitrogen, Life Technologies) and RNA was then extracted and purified. RNA quality and concentration were determined using a NanoDrop ND-1000 (NanoDrop Technologies). Reverse transcription and real-time quantitative PCR (qPCR) were carried out on RNA samples for VEGF and β2-microglobulin (a housekeeping gene not affected by change in oxygen levels), using TaqMan gene expression assays (Applied Biosystems/Life Technologies). For gene expression quantification, the comparative threshold cycle (ΔΔCT) method was used following manufacturer's guide-lines. Results were normalized to β2-microglobulin expression and expressed as arbitrary units using one of the normoxic untreated samples as a calibrator. […]

[5] = tested on: vascular endothelial growth factor (VEGF); assay: VEGF gene expression in carotid artery by qPCR after local application; assay type: in vivo, Sprague Dawley rats; conditions: 24 h
Protocol: (§4) Male animal study: Sprague Dawley rats (450 g) were used in this study. Animals were anesthetized using 2% isoflurane where the rats were placed in a supine position. The right carotid artery was exposed and DMOG was applied locally at different concentrations (0-7.5 mg/Kg) on the artery using pluronic gel (30% w/w). 3 rats were used in each concentration group.
Real time qPCR: RNA was extracted and purified from the frozen artery sections using TRIzol (Invitrogen, Life Technologies). RNA quality and concentrations were determined using a NanoDrop ND-1000 (NanoDrop Technologies). Reverse transcription and real-time quantitative PCR (qPCR) were carried out on RNA samples for VEGF and β2-microglobulin as described in example 2.

human fibroblasts = assay: Scratch assay, skin injury model, fibroblasts; assay type: cell-based; conditions: agent alone (DMOG 100 μM or EPO 1 ng/ml), 3% serum, 21% oxygen, vs untreated cells
Protocol: (§5) An in vitro injury model using cells relevant to wound injury were used. Two different cell lines; human keratinocytes (HaCaT) and human fibroblasts were used as skin injury models.
(§6) Scratch assay: As described in example 3, the reparative effect of EPO (1 ng/mL) and DMOG (100 uM) were tested alone or in combination on HaCaT and fibroblasts incubated in cell culture medium (Dulbeccos cell culture medium) containing 3% serum in 21% oxygen for 24 h.

HIF-1 [6] = assay: HIF-1 protein levels in cell lysates by ELISA; assay type: cell-based, rat; conditions: 100 μM, 18 h, 21% O2; reaches level similar to cells at 1% oxygen
Protocol: as §3
Enzyme linked immunosorbent assay (ELISA): HIF-1 protein levels were measured using ELISA. Treated cells were lysed in 80 μL lysis buffer (25 mmol/L Tris HCl pH 7. 6, 0.1% SDS, deoxycholate, 1% NP40, 0.5 mol/L EDTA, 40 mmol/L EGTA and protease inhibitors). Lysates were then centrifuged at 11,000 g for 15 min at 4° C. and the supernatant was collected. Protein concentrations were quantified using a BCA reagent kit (Pierce Biotechnology). HIF was measured using an ELISA kit (R&D systems and biotechne, UK) and expressed as pg/mg protein.
Similar to the methods described in example 2, HIF-1 protein expression and VEGF gene expression were quantitatively measured in vitro using ELISA and real time qPCR respectively using different the different HIF-1 inducers at different concentrations (0-500 uM).

[7] = tested on: human keratinocytes (HaCaT); assay: Scratch assay, skin injury model, keratinocytes; assay type: cell-based; conditions: agent alone (DMOG 100 μM or EPO 1 ng/ml), 3% serum, 21% oxygen, vs untreated cells
Protocol: as §5, §6

HIF-1 [8] = assay: HIF-1 in plasma by ELISA after local application on carotid artery; assay type: in vivo, Sprague Dawley rats; conditions: 24 h
Protocol: as §4
ELISA: After 24 h, blood was taken from the rat's tail in tubes containing EDTA as an anti-coagulant. Blood was kept on ice and centrifuged to separate the plasma which was immediately treated with a protease inhibitor. HIF-1 was quantified in the collected plasma using the ELISA assay as described in example 2. After 24 h, treated animals were culled and both the right (treated) and left (untreated) carotid arteries were isolated and snap frozen for further analysis.

rat carotid artery = assay: Balloon catheter injury (angioplasty) model, endothelial regrowth by Evan's blue staining; assay type: in vivo, Sprague Dawley rats; conditions: DMOG 5 mg/Kg alone, local hydrogel, 5 days after injury
Text: as §2

[9] = tested on: rat aortic endothelial cells (RAECs); assay: Scratch assay (in vitro injury model), wound closure; assay type: cell-based; conditions: HIF-1 inducer 100 μM alone, 21% oxygen, 5% serum, vs untreated cells
Protocol: Scratch assay: This assay was used as an in vitro model of injury in rat aortic endothelial cells (RAECs). The effect of EPO on wound closure was investigated in either 21% or 1% O2. A reproducible scratch was produced in the endothelial monolayer and thereafter, either EPO (1 ng/mL) or saline (control) was added to the cells (in rat endothelial growth medium containing 5% serum) and subsequently incubated in 21% or 1% O2 for 24 hours. The defined area of the scratch was photographed under an inverted microscope (Olympus CKX41; Olympus Corporation, Tokyo, Japan) at lox magnification using a Micropix 5 megapixel colour complementary metal-oxide semiconductor digital camera (Olympus Cooperation). The position of the wound image was standardized each time against a horizontal line drawn on the base of the plate passing through the centre of each well. The scratch area was quantified using ImageJ software (National institutes of Health, Bethesda, Md., USA).
Scratch assay: Scratch assay was used as described in example 1. Cells where treated with DMOG (100 μM) and/or EPO (at 1 ng/mL). Cells incubated with medium containing 10% serum where used as positive control to reflect the maximum wound closure the cells could attain after 24 h. […]

[10] = 0-7.5 mg/Kg applied locally on carotid artery in pluronic gel
[11] = local application on carotid artery

`O=C(O)CNC(=O)c1nc(Cl)c2ccccc2c1O` [BIQ, N-[(1-Chloro-4-hydroxy-3-isoquinolinyl)carbonyl]glycine] was tested, and the “proliferation of smooth muscle cells” value [1] was “no effect”, the “proliferation of rat aortic endothelial cells” value [2] was “enhanced” and the “optimum concentration for enhancing proliferation of rat aortic endothelial cells” value [2] was 100 µM.
For `COC(=O)CNC(=O)C(=O)OC` [DMOG, dimethyloxalylglycine], the “HIF-1 levels in rat plasma” value (HIF-1 [3]) was “significantly increased”, the “gene expression of VEGF” value [4] was “increase” and the “gene expression of VEGF in carotid artery” value [5, 10] was “concentration dependent effect”. The “optimal dose to cause an increase in VEGF” value [5, 11] was 5 mg/kg, the “proliferation of smooth muscle cells” value [1] was “no effect” and the “% wound closure after 24 h” value (human fibroblasts) was “no significant different”. The “proliferation of rat aortic endothelial cells” value [2] was “enhanced”, the “optimum concentration for enhancing proliferation of rat aortic endothelial cells” value [2] was 100 µM and the “HIF levels in cell lysates” value (HIF-1 [6]) was “increase”. For the same compound, the “% wound closure after 24 h” value [7] was “no significant different”, the “HIF levels in plasma” value (HIF-1 [8]; [10]) was “concentration dependent effect” and the “optimal dose to cause an increase in HIF-1” value (HIF-1 [8]; [11]) was 5 mg/kg. The “repair of the endothelial lining of rat carotid artery” value (rat carotid artery) was “significant effect”.
In the case of `O=C(O)CNC(=O)c1c(O)c2ccccc2n(Cc2ccccc2)c1=O` [IOX, N-[[1,2-Dihydro-4-hydroxy-2-oxo-1-(phenylmethyl)-3-quinolinyl]carbonyl]glycine], the “% wound closure after 24 h” value [9] is reported as “no change”.
